Each structure is given as a SMILES string.

One series concerns tomato strain Ikram. As to conditions: in vivo, 11 days.
For another series, the system named is Solanum nigrum seeds. As to the kind of experiment: Viability of weed seeds buried in sandy soil. The series is classed as in vivo. As to conditions: 54 ppm of emulsion, depth 10 cm, 6 days in soil, evaluated 6 days after resowing. As to the method:
The effect of trans-2-octenal was also examined on the weed Solanum nigrum. To this end, 20 seeds of this weed were put in tea bags and buried in sandy soil at the depth of 10 cm. Six (6) days later, 54 ppm of emulsion of trans-2-octenal were applied via the irrigation system. After additional 6 days the seeds were removed from the soil and sown in fresh loam pots. A control experiment was performed as above except that the seeds were irrigated with tap water without the compound. The viability of the seeds was evaluated after 6 days.

Series [1] deals with Meloidogyne javanica second stage juveniles (J2s). As to the kind of experiment: Nematocidal activity: viability of J2 nematodes after 2 days exposure to the compound in a sealed box. Type of series: in vivo. Particulars: comparison within the series.
Series [2] concerns Fusarium oxysporum f sp. radicis-cucumerinum (FORC). Nature of the series: Effect on FORC in loam soil in buckets. Type of series: in vivo. As to the method: The activity of trans-2-octenal was examined against phytopathogenic fungi and weeds. The experiment was performed in large buckets (110 L), which bottoms were removed, and therefore the loam in the bucket was continuous with the ground. The soil was inoculated one day prior the application of the compound. Soil inoculation was performed as follows: spores of Fusarium oxysporum f sp. radicis-cucumerinum (FORC) were collected from culture plates and 25 mL of spore suspension at concentration of 9×10^5 was mixed with 10 L of tap water and then poured on the soil of each bucket. […] Half of the buckets were sealed with nylon while the other half remained open. Five days later, soil samples from three different depths (10, 20, and 30 cm) were taken from each bucket for fungal isolation and determination of fungal survival. […] After 3 days, the number of colonies was counted. […] Similar results were obtained at close condition, except at depth 30 cm at concentration of 62.5 ppm.

The test system of another series is S. rolfsii. Nature of the series: Fungicidal activity assay on PDA in sealed Petri dish (growth inhibition and mortality). As to conditions: Agroathelia rolfsii; S. rolfsii; NA + number = still viable in the highest concentration tested (given as >); read-out: M - Mortality, minimal concentration that killed the fungus. Type of series: cell-based, Sclerotinia rolfsii.

Another series concerns Meloidogyne javanica J2s. As to the kind of experiment: Greenhouse nematocidal experiment with susceptible tomato plants in inoculated loam. Type of series: in vivo. Particulars: 30 ppm in soil, tomato harvested after 8 weeks. The method, then:
The activity of trans-2-octenal against nematodes was examined in a greenhouse experiment using stage 2 juveniles of the rot-knot nematode Meloidogyne javanica. […] After 2 days, the inoculated soil was treated with 30 ppm of trans-2-octenal and incubated for additional 5 days. Then, susceptible tomato plants were planted, and allowed to grow in a growing chamber for 8 weeks. At the end of the experiment, the plants, along with their root systems, were harvested from their pots and evaluated for incidence of root galling. In addition, M. javanica eggs were extracted from each root and counted, and the number of eggs per gram root was calculated. As shown in FIGS. 14A-14D, trans-2-octenal reduced the galling index and the number of eggs per gram root. […] The activity of 2-cyclohexen-1-one against nematodes was examined in a greenhouse experiment using stage 2 juveniles of the rot-knot nematode Meloidogyne javanica. The experiment was performed as described for trans-2-octenal. […] After 2 days, the inoculated soil was treated with 15 or 31 ppm of 2-cyclohexen-1-one and incubated for additional 5 days. Then, susceptible tomato plants were planted, and allowed to grow in a growing chamber for 8 weeks. At the end of the experiment, the plants, along with their root systems, were harvested from their pots and evaluated for incidence of root galling. In addition, M. javanica eggs were extracted from each root and counted, and the number of eggs per gram root was calculated.

Method for tomato strain Ikram: An experiment in a larger scale was performed in loam soil in which the seedling were planted directly in the treated plot. The soil was treated with 0, 25, 50, 100, 200, 400, 800, and 1,600 ppm of emulsion of trans-2-octenal. The compound was applied using the irrigation system. A day later, tomato seedling strains Ikram and Abigail and lettuce seedling strain Raviv (10 seedlings each) were planted into the treated soil of each concentration. Eleven days later, the number of viable seedlings was counted.

Turning to `CCCCC/C=C/C=O` [trans-2-octenal], the “concentration at which phytotoxic effect was displayed” value in the series on tomato strain Ikram is recorded as 800 ppm. In the series with Solanum nigrum seeds, the “viability of the seeds” value is “eliminated seeds viability”. The “nematocidal activity in words” value in series [1] is recorded as “relatively less potent nematicide”. Also, the “concentration sufficient to eliminate FORC” value in series [2] (close condition, except at depth 30 cm) was 62.5 ppm. Besides, the “concentration sufficient to eliminate FORC” value in series [2] (open conditions, all depths examined (10, 20, 30 cm), 5 days) is on record as 62.5 ppm. Moreover, the MFC in the series with S. rolfsii is 6.25 µg/mL. In addition, in the series with Meloidogyne javanica J2s, the galling index result is recorded as “reduced” and the “number of eggs per gram root” value is “reduced”.

Source of the values: patent publication US11998008B2, “Pesticides and methods of controlling pests” (The State of Israel, Ministry of Agriculture & Rural …, priority 2017, dated 2024).
